The values that follow come from patent EP4592276A1, “NOVEL ACY[…] OF PSILOCIN AND RELATED 4-HYDROXYT[…] BY AN EFFICIENT […] APPROACH” (Universität Heidelberg, priority 2024, dated 2025).

Data set [1] is described as follows: Prodrug stability in human whole saliva. Format: in vitro ADME. The note with it: mean of fresh samples of three individuals, classified into three groups; for half-life at 50 µM: 37 °C. The protocol:
Freshly collected saliva and 5 mM stock solutions of the analytes in DMSO were prewarmed to 37 °C for 10 min. Then, 700 µl prewarmed saliva was added to 7 µl of the prodrug stock, and the mixture was incubated at 37 °C. Samples (100 µL) were taken at selected time points (0, 10, 20, 40, 60 min; 2 h or 24 h) and immediately quenched with acetonitrile (200 µl). Blank samples were prepared by mixing saliva (100 µl) with acetonitrile (200 µl). Centrifugation (3,000 rpm, 5 min) of the quenched samples afforded clear supernatants which were transferred to 96 well U-bottom polypropylene plates (Greiner Bio-One, Germany). Analyte quantifications were performed on a Jasco HPLC system equipped with a UV detector and an RP-18 column (Chromolith® Performance RP-18e, 100x4.6 mm) using the gradients listed in Table 4. Samples that gave rise to asymmetric peaks inadequate for quantification were diluted (1:1) with H2O (+0.1 % TFA). The injection volume was 40 µl and the flow was set to 1.0 mL/min. UV detection was performed at 286 nm. […] Table 4: HPLC settings for quantitative analysis of saliva samples.

Data set [2] can be described thus: Passive membrane permeation assay (PAMPA). The note with it: pre-coated PAMPA plate, PBS pH 7.4, 200 µM, 25 °C; for R (mass retention) / Pe: 5 h; for Pe / Papp at 5 h, 200 µM: mean ± standard deviation; for Papp at 5 h, 200 µM: read-out: Pe. In kind it is in vitro ADME. As for the experimental part: The passive membrane permeability was evaluated with a pre-coated PAMPA plate system (BD Gentest, BD Bioscience, Germany) following the guidelines of the manufacturer and a previous literature report (cf. Kühl et al. Eur. J. Med. Chem. 2022, 240, 114585). Phosphate-buffered saline (PBS) pH 7.4 (Sigma-Aldrich, Germany) was used for all experiments. Analyte concentrations were determined on a Jasco HPLC system equipped with a UV detector and an RP-18 column (Chromolith® Performance RP-18e, 100x4.6 mm) using one of the gradients listed in Table 2. For all samples, the injection volume was 40 µl. Table 2: HPLC settings for the analysis of PAMPA samples.
Prior to performing the assay, the PAMPA plate was warmed to room temperature for 0.5 h. In the donor plate, 300 µL of the 200 µM compound solutions in PBS (4 % dimethyl sulfoxide (DMSO)) were dispensed in triplicate, and in the acceptor plate, 200 µL of PBS buffer were added to all wells. The plates were combined, and the system was incubated at 25 °C for 5 h. Upon completion of the incubation, donor and acceptor plate were separated. The wells were homogeneously mixed with a pipette, and a 100 µl sample of each donor and acceptor well was transferred to 96 well U-bottom polypropylene plates (Greiner Bio-One, Germany) for quantitative HPLC analysis.
A general note: PAMPA measures passive passage across an artificial lipid membrane.

A short description of data set [3]: Stability of prodrugs in methanol (1H NMR). The note with it: CD3OD, ambient temperature, within 18 days. Format: physicochemical. The text has this: The stability of the exemplary carboxylic ester 8b in methanol was studied by dissolving a few milligrams of the fumarate ester in CD3OD at ambient temperature and measuring ^1H NMR spectra in appropriate time intervals.

Data set [4] is described as follows: Drug release kinetics (prodrug cleavage) in human blood plasma. The note with it: 37 °C; for half-life: 10 % human plasma in PBS, 50 µM; for half-life at 50 µM: 100 % human plasma. In kind it is in vitro ADME. The protocol: Pooled human blood plasma (Biowest, France) and sterile Dulbecco's phosphate buffered saline (PBS) pH 7.3 (Sigma-Aldrich, Germany) were used for all experiments. The blood plasma was aliquoted upon receipt and stored at -20 °C. 10 % solutions were prepared by thawing a plasma aliquot at 2-8 °C, distributing it into plastic vials and diluting with the appropriate volume of sterile PBS. The 10 % and 100 % plasma aliquots were stored at -20 °C and thawed at 2-8 °C directly before the assay was performed. In a thermoblock, a plasma aliquot and 10 µl of a 5 mM prodrug solution in DMSO were prewarmed to 37 °C for 10 min in separate plastic vials. Then, 1000 µl of the prewarmed plasma sample was added to the prodrug solution, and 9×100 µl samples were withdrawn at appropriate time intervals. The enzymatic reaction was quenched by immediate mixing of the samples (100 µl) with acetonitrile (200 µl). Blank samples were prepared by mixing 10 % or 100 % plasma (100 µl) with acetonitrile (200 µl), respectively. Samples of the initial reaction mixture were prepared by adding the 5 mM prodrug solution (1 µl) to a blank sample.
Centrifugation (13,000 rpm, 3 min) of the quenched samples afforded clear supernatants which were transferred to 96 well U-bottom polypropylene plates (Greiner Bio-One, Germany). Analyte quantifications were performed on a Jasco HPLC system equipped with a UV detector and an RP-18 column (Chromolith® Performance RP-18e, 100x4.6 mm) using one of the gradients listed in Table 3. Prodrug degradation was monitored using undiluted supernatant and a 10 min chromatographic method. […] For all samples, the injection volume was 40 µL and the flow was set to 1.0 mL/min. […] Table 3: HPLC settings for quantitative analysis of plasma samples.

In data set [5] the test system is HuH-7 cells. Briefly: Cell viability in HuH-7 cells (CellTiter-Blue). Format: cell-based, human. The note with it: 50 µM, mean of triplicates ± standard deviation. The protocol: In order to assess cytotoxic effects of compounds in cell culture, HuH-7 cells were incubated in presence of these compounds in a 96-well plate for 2 h or 24 h. In order to generate a calibration curve for cell viability, a serial dilution (1:2 dilution series) of cells was seeded into control wells. Measurement of cell viability is based on the assay development using CellTiter-Blue reagent (Resazurin, blue color), which is reduced to resofurin (pink color) by viable cells.
Prior to performing the assay, a 96-well assay plate (F-bottom, transparent, Greiner) containing HuH-7 cells (20,000 cells per well) in culture medium was prepared. […] CellTiter-Blue reagent (1-2 mL) was diluted with cell culture medium (10 mL) in a Falcon tube and prewarmed to 37 °C. The 96-well plate was removed from the incubator, the medium aspirated using a vacuum pump and 100 µL of diluted CellTiter-Blue reagent was added to each well.

Data set [6] is described as follows: Equilibrium solubility (shake-flask). The note with it: 35.5 °C, pH 6.8, aqueous buffer, thermodynamic from solid. The protocol:
For each reported solubility result, one shake-flask experiment was carried out unless otherwise stated. Measurements at pH 2.0 were performed in 0.01 M HCl. Measurements at pH 6.8 were performed in a KH2PO4/K2HPO4 buffer with an ionic strength of 70 mM. For each experiment, the solid, HPLC-purified sample (1.7 - 25 mg) was suspended in 250 - 500 µL of the aqueous buffer in a glass vial. The solution containing solid excess of the sample was then capped and shaken at 220 rpm in an Infors HT Minitron incubator at a defined temperature for 6 hours. Three aliquots (3 × 70 µL) were removed with a fine pipette from each shake-flask experiment, and the saturated solution in these aliquots was separated from precipitate by centrifugation (10000 rpm, 5 min) at the assay temperature. […] The reported values are the mean of three measured concentrations. The error was estimated based on the standard deviation of the three measurements and the uncertainty of the calibration curve. Table 8: Equilibrium solubility of selected prodrugs along with references.

“And” between values parts separate entries of the source, which are not always exact repeats. Equal entries are not always repeated. Structures can show the parent of a compound that is named as a salt.

A word on the half-life: it is how long it takes for the measured level to halve. On to `CCCC(=O)Oc1cccc2[nH]cc(CCN(C)CC)c12` [Compound 8b, 4-Butyryloxy-N-ethyl-N-methyltryptammonium fumarate], for which, in data set [1], the half-life at 50 µM was in the range of 15 to 60 min. For the same compound, in data set [2], the “R (mass retention)” value worked out at 4%; the Pe result was “at least 8 10^-6 cm/s”; the Papp at 5 h, 200 µM stood at 9.2 ± 0.8 ×10⁻⁶ cm/s. Further, the “initial amount of ester degraded” value in data set [3] was “approximately 50%”. Further, the half-life in data set [4] amounted to 0.64 ± 0.04 min. In data set [5], the “Cell Viability in HuH7 at 50 µM, 2 h Incubation” value (from here on “Cell Viability … 2 h Incubation”) is 88.1 ± 6.0% and the “Cell Viability in HuH7 at 50 µM, 24 h Incubation” value (“Cell Viability … 24 h Incubation” below) was 83.7 ± 1.0%.

Take `CCCCCC(=O)Oc1cccc2[nH]cc(CCN(C)CC)c12` [Compound 8c, 4-Hexanoyloxy-N-ethyl-N-methyltryptammonium fumarate, reference compound]: the half-life at 50 µM in data set [1] was less than 15 min. Moreover, in data set [2], the “R (mass retention)” value is given as 7% and the Papp at 5 h, 200 µM came out at 11.8 ± 1 ×10⁻⁶ cm/s. In addition, in data set [4], the half-life amounted to 0.66 ± 0.13 min. Moreover, in data set [5], the “Cell Viability … 2 h Incubation” value was 30.2 ± 1.0% and the “Cell Viability … 24 h Incubation” value is listed as 74.3 ± 8.0%.

With `CCN(C)CCc1c[nH]c2cccc(OC(=O)C(C)C)c12` [Compound 8d, 4-iso-Butyryloxy-N-ethyl-N-methyltryptammonium fumarate], the half-life at 50 µM in data set [1] is 15 to 60 min. For the same compound, in data set [2], the “R (mass retention)” value is on record as 4%; the Pe entry is on record as “at least 8 10^-6 cm/s”; the Papp at 5 h, 200 µM was determined as 9.5 ± 0.7 ×10⁻⁶ cm/s. Moreover, the half-life in data set [4] turned out to be 0.44 ± 0.03 min. In data set [5], the “Cell Viability … 2 h Incubation” value is recorded as 91.4 ± 3.7% and the “Cell Viability … 24 h Incubation” value is reported as 82.1 ± 2.3%.

With `CCN(C)CCc1c[nH]c2cccc(OC(=O)C(C)(C)C)c12` [Compound 8f, 4-Pivaloyloxy-N-ethyl-N-methyltryptammonium fumarate], in data set [1], the half-life at 50 µM was greater than 60 min; the “t1/2 at 37 °C and [prodrug]0 = 50 µM, Human Saliva” value was greater than 60 min. Besides, in data set [2], the “R (mass retention)” value is -2% and the Papp at 5 h, 200 µM was found to be 10.7 ± 0.7 ×10⁻⁶ cm/s. Besides, in data set [4], the half-life at 50 µM was greater than 60 min. In addition, in data set [5], the “Cell Viability … 2 h Incubation” value is reported as 80.4 ± 2.1% and the “Cell Viability … 24 h Incubation” value stood at 79.4 ± 2.1%.

Regarding `CCN(C)CCc1c[nH]c2cccc(OC(=O)c3ccccc3)c12` [Compound 8i, 4-Benzoyloxy-N-ethyl-N-methyltryptammonium fumarate], the half-life at 50 µM in data set [1] was 15 to 60 min. Further, in data set [2], the “R (mass retention)” value is 6% and the Papp at 5 h, 200 µM is 9.4 ± 0.8 ×10⁻⁶ cm/s. The half-life in data set [4] was determined as 1.5 ± 0.5 min. Moreover, in data set [5], the “Cell Viability … 2 h Incubation” value came to 95.0 ± 3.8% and the “Cell Viability … 24 h Incubation” value was 80.1 ± 1.7%.

Regarding `CN(C)CCc1c[nH]c2cccc(OCOC(=O)C(C)(C)C)c12` [Compound 15a, 4-Pivaloyloxymethyloxy-N,N-dimethyltryptammonium fumarate], the half-life at 50 µM in data set [1] was 15 to 60 min. In addition, in data set [2], the “R (mass retention)” value is 4% and the Pe is 9.1 ± 0.5 10^-6 cm/s. In data set [4], the half-life at 50 µM was greater than 300 min. In data set [5], the “Cell Viability … 2 h Incubation” value is recorded as 61.6 ± 6.0% and the “Cell Viability … 24 h Incubation” value is 61.6 ±18.4%.

With `CCN(C)CCc1c[nH]c2cccc(OCOC(=O)C(C)(C)C)c12` [Compound 15c, 4-Pivaloyloxymethyloxy-N-ethyl-N-methyltryptammonium fumarate], the half-life at 50 µM in data set [1] was less than 15 min. Moreover, in data set [2], the “R (mass retention)” value amounted to 2% and the Pe was 9.7 ± 0.6 10^-6 cm/s. The half-life at 50 µM in data set [4] was greater than 300 min. Moreover, in data set [5], the “Cell Viability … 2 h Incubation” value is 48.3 ± 16.1% and the “Cell Viability … 24 h Incubation” value turned out to be 47.1 ± 10.4%.

By thermodynamic solubility is commonly meant solubility found after equilibrating the solid with the medium. For the compound `CN(C)CCc1c[nH]c2cccc(OC(=O)C3CC3)c12` [Compound 19c, 4-(cyclopropanecarbonyloxy)-N,N-dimethyltryptamine], the solubility (thermodynamic) at 6 h in data set [6] is 32600 µM and 8900 µg/mL.
